US6936591B2, “Amorphous 9-deoxo-9a-aza-9a-methyl-9a-homoerythromycin A, process for preparing the same, and uses thereof” (Pliva Pharmaceutical Industry, Incorporated, priority 2002, dated 2005)

What was measured:
Assay type in all cases: physicochemical
[1] = Dissolution profiles, USP Method 2, dissolved content by HPLC
Experimental: For comparison, new pseudopolymorph Ic as prepared by the procedure in Example 3 above and new amorphous 9-deoxo-9a-aza-9a-methyl-9a-homoerythromycin A as prepared by the procedure in Example 11 above were used. The comparative dissolution profiles were determined by USP Method 2, PharmaTest Dissolution Tester, PTW SII; and the content of dissolved 9-deoxo-9a-aza-9a-methyl-9a-homoerythromycin A was measured by HPLC. The data thus obtained are set forth in Table 2 below, and plotted in FIGS. 8 (pH 3) and 9 (pH 6).

[2] = Intrinsic dissolution rate (IDR), Intrinsic Dissolution Tester, Van Kel Type; details: medium of pH 6 and 37° C.
Experimental: The intrinsic dissolution rates (IDR) for the new amorphous 9-deoxo-9a-aza-9a-methyl-9a-homoerythromycin A prepared according to the procedure of Example 11, and the commercial 9-deoxo-9a-aza-9a-methyl-9a-homoerythromycin A dihydrate, in medium of pH 6 and 37° C., were determined by Intrinsic Dissolution Tester, Van Kel Type. The IDR for the new amorphous 9-deoxo-9a-aza-9a-methyl-9a-homoerythromycin A was about […], about […] higher than the IDR of the prior art, i.e. 9-deoxo-9a-aza-9a-methyl-9a-homoerythromycin A dihydrate (about 1.8 mg min^−1cm^−2).

[3] = Hygroscopicity and stability at normal storage conditions

Row | Compound | Percent dissolved ([1]; pH 3, 37° C., 5 minutes) [%] | Percent dissolved ([1]; pH 3, 37° C., 10 minutes) [%] | Percent dissolved ([1]; pH 3, 37° C., 20 minutes) [%] | Percent dissolved ([1]; pH 3, 37° C., 45 minutes) [%] | Percent dissolved ([1]; pH 3, 37° C., 60 minutes) [%] | Percent dissolved ([1]; pH 6, 37° C., 5 minutes) [%] | Percent dissolved ([1]; pH 6, 37° C., 10 minutes) [%] | Percent dissolved ([1]; pH 6, 37° C., 20 minutes) [%] | Percent dissolved ([1]; pH 6, 37° C., 45 minutes) [%] | Percent dissolved ([1]; pH 6, 37° C., 60 minutes) [%] | other results
1 | CC[C@H]1OC(=O)[C@H](C)[C@@H](O[C@H]2C[C@@](C)(OC)[C@@H](O)[C@H](C)O2)C(C)[C@@H](O[C@@H]2O[C@H](C)C[C@H](N(C)C)[C@H]2O)[C@](C)(O)C[C@@H](C)CN(C)[C@H](C)[C@@H](O)[C@]1(C)O (stereo partly drawn) [9-deoxo-9a-aza-9a-methyl-9a-homoerythromycin A dihydrate, reference compound] | – | – | – | – | – | – | – | – | – | – | Percent dissolved ([1]; pH 3, 37° C., 5 minutes, dihydrate): 3.9%; Percent dissolved ([1]; pH 3, 37° C., 10 minutes, dihydrate): 8.1%; Percent dissolved ([1]; pH 3, 37° C., 20 minutes, dihydrate): 14.6%; Percent dissolved ([1]; pH 3, 37° C., 45 minutes, dihydrate): 26.7%; Percent dissolved ([1]; pH 3, 37° C., 60 minutes, dihydrate): 33.3%; Percent dissolved ([1]; pH 6, 37° C., 5 minutes, dihydrate): 14.5%; Percent dissolved ([1]; pH 6, 37° C., 10 minutes, dihydrate): 27.3%; Percent dissolved ([1]; pH 6, 37° C., 20 minutes, dihydrate): 44.2%; Percent dissolved ([1]; pH 6, 37° C., 45 minutes, dihydrate): 69.1%; Percent dissolved ([1]; pH 6, 37° C., 60 minutes, dihydrate): 73.7%; Intrinsic dissolution rate (IDR) ([2]; dihydrate): about 1.8 mg min^−1 cm^−2
2 | CC[C@H]1OC(=O)[C@H](C)[C@@H](O[C@H]2C[C@@](C)(OC)[C@@H](O)[C@H](C)O2)C(C)[C@@H](O[C@@H]2O[C@H](C)C[C@H](N(C)C)[C@H]2O)[C@](C)(O)C[C@@H](C)CN(C)[C@H](C)[C@@H](O)[C@]1(C)O (stereo partly drawn) [Example 11, 9-deoxo-9a-aza-9a-methyl-9a-homoerythromycin A] | 14.3 | 26.5 | 50.5 | 85.8 | 89.5 | 78.5 | 97.5 | 98.7 | 96.7 | 95.1 | Hygroscopicity [3]: not hygroscopic; Stability (chemical stability and stability of the "crystal" form) ([3]; normal storage conditions): stable; Specific dissolution rate as compared with the dihydrate ([1]; compared with the dihydrate): significantly better; Intrinsic dissolution rate (IDR) [2]: about 2.79 mg min^−1 cm^−2; IDR higher than the IDR of the dihydrate ([2]; relative to commercial dihydrate): about 40%
3 | CC[C@H]1OC(=O)[C@H](C)[C@@H](O[C@H]2C[C@@](C)(OC)[C@@H](O)[C@H](C)O2)[C@H](C)[C@@H](O[C@@H]2O[C@H](C)C[C@H](N(C)C)[C@H]2O)[C@](C)(O)C[C@@H](C)CN(C)[C@H](C)[C@@H](O)[C@]1(C)O [Ic, 9-deoxo-9a-aza-9a-methyl-9a-homoerythromycin A] | 12.3 | 29.4 | 52.5 | 92.2 | 93.2 | 74.0 | 98.8 | 98.6 | 95.3 | 94.6 | –
